Measured values: publication PMC7920280, “The Multi-Targeting Ligand ST-2223 with Histamine H3 Receptor and Dopamine D2/D3 Receptor Antagonist Properties Mitigates Autism-Like Repetitive Behaviors and Brain Oxidative Stress in Mice” (International Journal of Molecular Sciences, 2021)

How the values were obtained:
Assay type in all cases: in vivo
glutathione (GSH) = test: Quantification of glutathione (GSH) in brain parts of treated BTBR mice; details: i.p., ST-2223 5 mg/kg, RAM 10 mg/kg, ARP 1 mg/kg, MEM 5 mg/kg, mean ± SEM; for GSH, Striatum: n = 3-6, BTBR vehicle 583 ± 68.8; for GSH, Cerebellum: n = 3-6, BTBR vehicle 827 ± 93.3; for GSH, Prefrontal Cortex: n = 3-6, BTBR vehicle 835 ± 97.4; for GSH, Hippocampus: n = 3-6, BTBR vehicle 1096 ± 16.7
Experimental: (§1) At the end of the behavioral assessments, the animals were sacrificed following previously published protocols. Animals were anesthetized with pentobarbital (40 mg/kg, body weight, i.p.), sacrificed, and perfused via intracardial infusion to wash out the blood, using 1× PBS (0.01 M phosphate buffer, 0.0027 M potassium chloride and 0.137 M sodium chloride) at pH 7.4. […] The brains were then quickly removed and placed on an ice plate. The cerebellum, hippocampus, prefrontal and striatum were excised from the brain and snap-frozen in liquid nitrogen for further use in biochemical assessments. On the day of the biochemical tests, the tissues were homogenized using radioimmunoprecipitation assay (RIPA) buffer (50 mM Tris HCl, pH 7.4, 140 mM NaCl, 1 mM EDTA, 0.5% Triton X-100 and 0.5% sodium deoxycholate) supplemented with protease and phosphatase inhibitors. Then, the homogenates were centrifuged at 14,000 rpm for 30 min (4 °C), and the supernatant was used for evaluation of lipid peroxidation, glutathione, and antioxidant enzymes using spectrophotometric measurements and enzyme-linked immunosorbent assays (ELISA)..
Levels of GSH in tissue homogenates were carried out according to the manufacturer’s instructions of the commercially available Sigma’s glutathione assay kit (Sigma-Aldrich Chemie GmbH, Steinheim), and as previously described. In brief, samples were first deproteinized with 5% 5-sulfosalicylic acid solution, centrifuged to remove the precipitated protein, and then the supernatant was used to estimate GSH. Ten microliter samples or standards were incubated with 150 μL of working mixture (assay buffer + 5,5′-dithiobis (2-nitrobenzoic acid) + GSH reductase) in 96-well plates for 5 min. Diluted NADPH solution (50 µL) was added into each well and mixed thoroughly. Absorbance was measured at 412 nm with the kinetics for 5 min by using the microplate reader. Results are expressed as µM GSH/mg protein.

BTBR and B6 mice [1] = test: Marble burying task (MBT); details: MEM 5 mg/kg; for percentage of marbles buried vs vehicle-treated BTBR mice: i.p. 30-45 min before, ST-2223 2.5, 5 and 10 mg/kg, ARP 1 mg/kg; for percentage of marbles buried vs vehicle-treated B6 mice: i.p., ST-2223 2.5, 5, 10 mg/kg
Experimental: (§2) The drugs tested included ST-2223 [N-(4-(4-(2-methoxyphenyl)piperazin-1-yl)butyl)-6-(3-(piperidin-1-yl)propoxy)-2-naphthamide] that was designed and synthesized in the Institute of Pharmaceutical and Medicinal Chemistry, Heinrich Heine University Düsseldorf, Germany, and in accordance with previously described methodologies (Supplementary Materials). Aripiprazole (ARP) (1 mg/kg, i.p.) and memantine (MEM, 5 mg/kg, i.p.), as reference drugs, were purchased from Sigma-Aldrich (St. Louis, MO, USA). The CNS-penetrant H3R agonist (R)-α-methylhistamine (RAM, 10 mg/kg, i.p.) was purchased from Sigma-Aldrich, St. Louis, MO, USA. T. Protease and the phosphatase inhibitor cocktail were procured from Thermo Scientific, USA. The assay kit for reduced glutathione (GSH) was obtained from Sigma-Aldrich (St. Louis, MO, USA). The lipid peroxidation assay kit for estimation of malondialdehyde (MDA) was purchased from North West Life Science (Vancouver, WA, USA). The assay kits for superoxide dismutase (SOD) and catalase (CAT) were purchased from Cayman Chemical (Ann Arbor, MI, USA). The drugs were prepared daily using 1% dimethyl sulfoxide (DMSO) in 0.9% saline, for intraperitoneal (i.p.) administration at a volume of 10 mL/kg of body weight. Vehicle treatment consisted of 1% DMSO in 0.9% normal saline. All drugs were i.p. administered 30 min before the behavioral test. The doses of these drugs were chosen based on previous reports. Neurobehavioral assessment was performed blindly with respect to experimental group and drug administration.
The MBT is used for testing repetitive and compulsive behaviors as it accurately reflects repetitive digging behavior [95, 96]. The test was performed as described previously, with slight modifications. Briefly, cages (26 cm × 48 cm × 20 cm) were filled with fresh, unscented mouse bedding material to a depth of 5 cm, on top of which 20 marbles were placed in 4 rows of 5 marbles each (15 mm diameter). Before placing the marbles, the bedding surface was leveled by placing another cage of the same size onto the surface of the bedding and then each mouse was individually added for 10 min habituation. After habituation, the mouse was removed, and the marbles were carefully overlaid. The same mouse was then returned to its designated test cage and allowed to explore for 30 min. The total number of marbles buried (>50% marble covered by the bedding material) was determined at the end of the session.

[2] = tested on: superoxide dismutase (SOD); test: Superoxide dismutase (SOD) activity in brain parts of treated BTBR mice; details: i.p., ST-2223 5 mg/kg, RAM 10 mg/kg, ARP 1 mg/kg, MEM 5 mg/kg, mean ± SEM; for SOD, Prefrontal Cortex: n = 3-6, BTBR vehicle 45.1 ± 2.8; for SOD, Hippocampus: n = 3-6, BTBR vehicle 49.5 ± 0.5; for SOD, Cerebellum: n = 3-6, BTBR vehicle 49.7 ± 1.3; for SOD, Striatum: n = 3-6, BTBR vehicle 51.8 ± 1.2
Experimental: as §1
To assess the activity of antioxidant enzymes Superoxide dismutase (SOD) and Catalase (CAT), commercially available kits were used, following the manufacturer’s instructions, and as previously reported. Cayman assay kits (Cayman Chemicals Company, Ann Arbor, MI, USA) were used to assess antioxidant enzyme (superoxide dismutase (SOD) and catalase (CAT)) activities in experimental animals. Catalase assay: Twenty microliters of samples or standards and 30 μL of methanol was added to the assay buffer (100 μL) in 96-well plates. To this mixture, twenty microliter of hydrogen peroxide was added and incubated for 20 min at room temperature (RT) to initiate the reaction. Following incubation, 30 μL of potassium hydroxide was used to terminate the reaction, followed by subsequent addition of catalase purpald (30 μL) and catalase potassium periodate (10 μL). The plate was incubated for 5 min at room temperature in a shaker and the plate was read at 540 nm using a microplate reader. Catalase activity was expressed as nmol/min/mg protein. Superoxide dismutase assay: ten microliters of sample or standard was added in 96-well plates. Twenty microliters of xanthine oxidase were added to initiate the reaction. The reaction mixture was mixed for few seconds and incubated (covered) for 30 min at room temperature (RT). Absorbance was read at 450 nm using microplate reader. The activity of SOD was expressed as units/mg protein.

BTBR and B6 mice [3] = test: Self-grooming paradigm (SGP); details: for time spent self-grooming vs vehicle-treated B6 mice / time spent self-grooming vs vehicle-treated BTBR mice: i.p., MEM 5 mg/kg, ARP 1 mg/kg; for time spent self-grooming vs vehicle-treated B6 mice: ST-2223 2.5, 5 and 10 mg/kg; for time spent self-grooming vs vehicle-treated BTBR mice: ST-2223 5 and 10 mg/kg
Experimental: as §2
In the SGP test, mice were scored for spontaneous grooming behaviors. […] To measure SGP, each mouse was placed individually in a standard clear plastic cage (28 cm wide × 17 cm long × 12 cm high) for a total of 20 min. Mice were allowed to freely explore the cage for the entire test, the first 10 min served as a habituation period. After 10 min habituation, each mouse was scored with a stopwatch for 10 min for cumulative time spent grooming all body regions. Grooming behavior included head washing, body grooming, genital/tail grooming and paw and leg licking. The observer sat approximately 1 m from the test cage during the second 10 min of testing.

Row | Compound | GSH, Striatum (glutathione (GSH)) [µM GSH/mg protein] | GSH, Cerebellum (glutathione (GSH)) [µM GSH/mg protein] | GSH, Prefrontal Cortex (glutathione (GSH)) [µM GSH/mg protein] | GSH, Hippocampus (glutathione (GSH)) [µM GSH/mg protein] | percentage of marbles buried vs vehicle-treated BTBR mice (BTBR and B6 mice [1]) | SOD, Prefrontal Cortex [2] [units/mg protein] | SOD, Hippocampus [2] [units/mg protein] | SOD, Cerebellum [2] [units/mg protein] | SOD, Striatum [2] [units/mg protein] | time spent self-grooming vs vehicle-treated B6 mice (BTBR and B6 mice [3]) | percentage of marbles buried vs vehicle-treated B6 mice (BTBR and B6 mice [1]) | time spent self-grooming vs vehicle-treated BTBR mice (BTBR and B6 mice [3]; BTBR mice) | self-grooming behavior vs vehicle-treated BTBR mice (BTBR and B6 mice [3]; BTBR mice, ST-2223 2.5 mg/kg i.p.)
1 | O=C1CCc2ccc(OCCCCN3CCN(c4cccc(Cl)c4Cl)CC3)cc2N1 [ARP, aripiprazole] | 1139 ± 74.6 | 1030 ± 36.2 | 935 ± 98.0 | 611.5 ± 62.6 | significantly reduced | 54.0 ± 5.2 | 51.8 ± 2.0 | 56.4 ± 1.1 | 65.7 ± 7.7 | did not alter |  |  | 
2 | CC12CC3CC(C)(C1)CC(N)(C3)C2 [MEM, memantine] | 915.5 ± 97.3 | 877 ± 55.7 | 719.3 ± 50.0 |  | significantly reduced | 44.9 ± 2.2 | 41.4 ± 3.4 | 64.4 ± 3.1 | 66.47 ± 4.4 | significantly reduced | not significant | significantly reduced | 
3 | COc1ccccc1N1CCN(CCCCNC(=O)c2ccc3cc(OCCCN4CCCCC4)ccc3c2)CC1 [ST-2223, N-(4-(4-(2-methoxyphenyl)piperazin-1-yl)butyl)-6-(3-(piperidin-1-yl)propoxy)-2-naphthamide] | 1007 ± 93.1 | 1108 ± 41.1 | 1212 ± 302.6 | 916 ± 4.2 | significantly decreased | 43.2 ± 3.4 | 48.1 ± 4.2 | 64.3 ± 1.0 | 51.2 ± 7.7 | did not alter | did not alter | significantly, and dose-dependently, decreased | failed to significantly mitigate
